# Literature values, collected in US20090325918A1, “Synthesis and separation of optically active isomers and cyclopropyl derivatives of spironolactone and their biological action” (priority 2008, published 2009).
# Tests used:
# hypertensive patients = hypertensive patients using spironolactone for therapy; 1% of men in the placebo group
# [1] = system: patients with congestive heart failure (CHF)
smiles,measurement,setting,value
"CC(=O)S[C@@H]1CC2=CC(=O)CC[C@]2(C)[C@H]2CC[C@@]3(C)[C@@H](CC[C@@]34CCC(=O)O4)[C@H]12 [spironolactone, 17-hydroxy-7-alpha-mercapto-3-oxo-17-alpha-pregn-4-ene-21-carboxylic acid gamma-lactone acetate]","Gynecomastia or tender breast enlargement, occurrence in patients",hypertensive patients,10%
same,Reduction in mortality (risk of death),"[1]; CHF patients taking digoxin and a loop diuretic, spironolactone with digitalis and ACE inhibitor",30%
same,Patients who discontinued treatment because of adverse events,[1]; spironolactone group,8%
same,"Frequency of hospitalization for worsening heart failure, lower than in the placebo group",[1]; spironolactone treated group vs placebo group,35%
same,Water solubility,,poor
